# Values quoted from earlier work, collected in patent US20210187081A1, “FORMULATIONS AND DOSES OF PEGYLATED URICASE” (Selecta Biosciences, Inc., priority 2019, published 2021).
# Like-named read-outs stand apart in the source and are kept apart here.
# Legend:
# [1] = system: patients with gout with an inadequate response to allopurinol; conditions: for Patients with gout flares requiring treatment in a month: colchicine prophylaxis
# [2] = system: Patients with Hyperuricemia and Gout; conditions: for Subjects who required treatment for at least one gout flare: first 8 weeks, with gout flare prophylaxis
Structure (SMILES),Patients with gout flares requiring treatment in a month ([1]; 200 mg daily),Flares per patient month (flare frequency) ([1]; 200 mg/day),Time of efficacy (area under curve of mean sUA levels over time) ([1]; 200 mg/day),Patients with gout flares requiring treatment in a month ([1]; 400 mg daily),Flares per patient month (flare frequency) ([1]; 400 mg/day),Time of efficacy (area under curve of mean sUA levels over time) ([1]; 400 mg/day),Patients with gout flares requiring treatment in a month ([1]; 600 mg daily),Flares per patient month (flare frequency) ([1]; 600 mg/day),Time of efficacy (area under curve of mean sUA levels over time) ([1]; 600 mg/day),Flares per patient month (flare frequency) ([2]; 80 mg/day),Subjects who required treatment for at least one gout flare ([2]; 80 mg/day),"Flares per patient month (flare frequency) ([2]; 80 mg/day, listed as febuxostat)",Flares per patient month (flare frequency) ([2]; 120 mg/day),Subjects who required treatment for at least one gout flare ([2]; 120 mg/day),"Flares per patient month (flare frequency) ([2]; 120 mg/day, listed as febuxostat)"
"O=C(O)CSc1nnc(Br)n1-c1ccc(C2CC2)c2ccccc12 [Lesinurad, lesinurad]",10 out of 46,0.22 flares per patient month,158.5,13 out of 42,0.31 flares per patient month,165.8,15 out of 48,0.31 flares per patient month,167.5,,,,,,
"Cc1nc(-c2ccc(OCC(C)C)c(C#N)c2)sc1C(=O)O [Febuxostat, febuxostat]",,,,,,,,,,0.22 flares per patient month,55 out of 255,at least 0.22 flares per patient month,0.36 flares per patient month,90 out of 250,≥ 0.36 flares per patient month
